From patent USRE48461E1, “Modulation of androgen receptor expression” (Ionis Pharmaceuticals, Inc., priority 2012, dated 2021)

How the values were obtained:
Format in all cases: cell-based, human
AR mRNA = experiment: AR RNA expression in LNCaP cells (complete, CSS, CSS+DHT medium); conditions: for Percent expression of AR in LNCaP cells cultured in CSS + DHT medium: CSS + DHT (1 nM) medium; for Percent expression of AR in LNCaP cells cultured in CSS + DHT medium / Percent expression of AR in LNCaP cells cultured in CSS medium: 48 hrs; for Percent expression of AR in LNCaP cells cultured in complete medium: 48 hours
Method: Cells were plated at 1,000 cells per well. […] After an incubation period of 48 hours, RNA levels of AR, PSA and TMPRSS2 were measured.
Cells were plated at 2,000 cells per well and cultured in phenol red-free RPMI supplemented with 5% charcoal stripped serum (Gibco) media for 16 hours. […] After an incubation period of 4 hrs, DHT was added to the medium to a final concentration of 1 nM as indicated. RNAs were collected 48 hrs later and levels of AR, PSA and TMPRSS2 were measured.

PSA mRNA [1] = experiment: PSA expression in LNCaP cells (complete, CSS+DHT medium); conditions: for Percent inhibition of PSA expression in LNCaP cells cultured in CSS + DHT medium: CSS + DHT (1 nM) medium, 48 hrs; for Percent inhibition of PSA expression in LNCaP cells cultured in complete medium: 48 hours
Method: Cells were plated at 1,000 cells per well. […] ISIS 549148 was included as a negative control. […] After an incubation period of 48 hours, RNA levels of AR, PSA and TMPRSS2 were measured.
Cells were plated at 2,000 cells per well and cultured in phenol red-free RPMI supplemented with 5% charcoal stripped serum (Gibco) media for 16 hours. […] ISIS 549148 was included as a negative control. […] After an incubation period of 4 hrs, DHT was added to the medium to a final concentration of 1 nM as indicated. RNAs were collected 48 hrs later and levels of AR, PSA and TMPRSS2 were measured. In the absence of DHT, AR expression in LNCaP cells was 95%, PSA expression was 7% and TMPRSS2 expression was 24% compared to the untreated control.

PSA mRNA [2] = experiment: PSA expression in C4-2 cells; conditions: 48 hrs; for Percent inhibition of PSA expression: C4-2 cells, CSS + DHT medium
Method: Cells were plated at 1,000 cells per well. […] After an incubation period of 48 hrs, RNA levels of AR, PSA and TMPRSS2 were measured.
Cells were plated at 2,000 cells per well and cultured in CSS media with 1 nM DHT. […] After an incubation period of 48 hrs, RNA levels of AR, PSA and TMPRSS2 were measured.

C4-2B cells = experiment: C4-2B cell proliferation (complete or CSS+DHT medium; Example 30); conditions: 5 days; for Proliferation (% untreated control): C4-2B cells
Method: After a treatment period of 5 days in complete medium or CSS+1 nM DHT medium, the proliferative capacity of the cancer cells was measured with using CellTiter 96® AQueous One or CellTiter-Glo® Solution Cell Proliferation kit (Promega), following the manufacturer's instructions.

cleaved PARP = experiment: Cleaved PARP western blot in VCaP cells
PSA mRNA [3] = experiment: PSA expression in 22RV1 cells; conditions: 48 hrs
Method: Cells were plated at 1,000 cells per well. […] After an incubation period of 48 hrs, RNA levels of full length AR, the V7 variant, PSA and TMPRSS2 were measured.
After an incubation period of 48 hrs, RNA levels of full length AR, the V7 variant, PSA and TMPRSS2 were measured.
Cells were plated at 2,000 cells per well and cultured in CSS media for 16 hours. […] After 4 hrs, 1 nM DHT was added. […] After an incubation period of 48 hrs, RNA levels of AR, AR V7 variant, PSA and TMPRSS2 were measured.

22RV1 cells = experiment: 22RV1 cell proliferation (Example 32); conditions: 5 days
Method: After a treatment period of 5 days in complete medium, the proliferative capacity of the cancer cells was measured with using CellTiter 96® AQueous One or CellTiter-Glo® Solution Cell Proliferation kit (Promega), following the manufacturer's instructions. […] Treatment with ISIS oligonucleotides in CSS+DHT medium reduced the proliferative capacity to a greater extent than treatment with MVD-3100. The proliferative capacity of cells cultured in CSS medium without DHT is 12% of untreated control levels.

`CNC(=O)c1ccc(N2C(=S)N(c3ccc(C#N)c(C(F)(F)F)c3)C(=O)C2(C)C)cc1F` [MDV3100, 4-(3-(4-cyano-3-(trifluoromethyl)phenyl)-5,5-dimethyl-4-oxo-2-thioxoimidazolidin-1-yl)-2-fluoro-N-methylbenzamide, reference compound] was tested, and the “Percent expression of AR in LNCaP cells cultured in CSS + DHT medium” value (“Percent expression of AR … in CSS + DHT medium” for short) (AR mRNA; 0.04 μM) was 107%, the “Percent expression of AR … in CSS + DHT medium” value (AR mRNA; 0.2 μM) was 121% and the “Percent expression of AR … in CSS + DHT medium” value (AR mRNA; 1 μM) was 110%. For the same compound, the “Percent expression of AR … in CSS + DHT medium” value (AR mRNA; 5.0 μM) was 113%, the “Percent expression of AR in LNCaP cells cultured in CSS medium” value (“Percent expression of AR … in CSS medium” below) (AR mRNA; 0.04 μM) was 91% and the “Percent expression of AR … in CSS medium” value (AR mRNA; 0.2 μM) was 67%. The “Percent expression of AR … in CSS medium” value (AR mRNA; 1 μM) was 64%, the “Percent expression of AR … in CSS medium” value (AR mRNA; 5.0 μM) was 77% and the “Percent expression of AR in LNCaP cells cultured in complete medium” value (“Percent expression of AR … in complete medium” for short) (AR mRNA; 0.2 μM) was 133%. For the same compound, the “Percent expression of AR … in complete medium” value (AR mRNA; 1 μM) was 121%, the “Percent expression of AR … in complete medium” value (AR mRNA; 5.0 μM) was 139% and the “Percent inhibition of PSA expression in LNCaP cells cultured in CSS + DHT medium” value (from here on “Percent inhibition … in CSS + DHT medium”) (PSA mRNA [1]; 0.04 μM) was 15%. For the same compound, the “Percent inhibition … in CSS + DHT medium” value (PSA mRNA [1]; 0.2 μM) was 38%, the “Percent inhibition … in CSS + DHT medium” value (PSA mRNA [1]; 1 μM) was 81% and the “Percent inhibition … in CSS + DHT medium” value (PSA mRNA [1]; 5.0 μM) was 82%. For the same compound, the “Percent inhibition of PSA expression in LNCaP cells cultured in complete medium” value (PSA mRNA [1]; 0.04 μM) was 0%, the “Percent inhibition of PSA expression in LNCaP cells cultured in complete medium” value (PSA mRNA [1]; 0.2 μM) was 35% and the “Percent inhibition of PSA expression in LNCaP cells cultured in complete medium” value (PSA mRNA [1]; 1 μM) was 84%. The “Percent inhibition of PSA expression in LNCaP cells cultured in complete medium” value (PSA mRNA [1]; 5.0 μM) was 87%, the “Percent inhibition of PSA expression” value (PSA mRNA [2]; 0.04 μM) was 9% and the “Percent inhibition of PSA expression” value (PSA mRNA [2]; 0.2 μM) was 8%. For the same compound, the “Percent inhibition of PSA expression” value (PSA mRNA [2]; 1 μM) was 51%, the “Percent inhibition of PSA expression” value (PSA mRNA [2]; 5.0 μM) was 73% and the “Percent inhibition of PSA expression in C4-2 cells cultured in complete medium” value (PSA mRNA [2]; 0.04 μM) was 28%. The “Percent inhibition of PSA expression in C4-2 cells cultured in complete medium” value (PSA mRNA [2]; 0.2 μM) was 40%, the “Percent inhibition of PSA expression in C4-2 cells cultured in complete medium” value (PSA mRNA [2]; 1 μM) was 72% and the “Percent inhibition of PSA expression in C4-2 cells cultured in complete medium” value (PSA mRNA [2]; 5.0 μM) was 89%. The “Proliferation (% untreated control)” value (C4-2B cells; CSS + DHT medium, 0.04 μM) was 125 % untreated control, the “Proliferation (% untreated control)” value (C4-2B cells; CSS + DHT medium, 0.2 μM) was 100 % untreated control and the “Proliferation (% untreated control)” value (C4-2B cells; CSS + DHT medium, 1 μM) was 83 % untreated control. For the same compound, the “Proliferation (% untreated control)” value (C4-2B cells; CSS + DHT medium, 5.0 μM) was 17 % untreated control, the “Proliferation (% untreated control)” value (C4-2B cells; complete medium, 0.04 μM) was 131 % untreated control and the “Proliferation (% untreated control)” value (C4-2B cells; complete medium, 0.2 μM) was 105 % untreated control. The “Proliferation (% untreated control)” value (C4-2B cells; complete medium, 1 μM) was 72 % untreated control, the “Proliferation (% untreated control)” value (C4-2B cells; complete medium, 5.0 μM) was 60 % untreated control and the “proliferation of C4-2B cells” value (C4-2B cells; complete medium or CSS+1 nM DHT) was “reduced proliferation of the cells in a dose dependent compared to the control”. The “cleaved PARP levels (western blot)” value (cleaved PARP) was “increased in a dose-dependent manner”, the “Percent of gene expression, PSA” value (PSA mRNA [3]; CSS + DHT medium, 0.04 μM) was 15% and the “Percent of gene expression, PSA” value (PSA mRNA [3]; CSS + DHT medium, 0.2 μM) was 19%. The “Percent of gene expression, PSA” value (PSA mRNA [3]; CSS + DHT medium, 1.0 μM) was 18%, the “Percent of gene expression, PSA” value (PSA mRNA [3]; CSS + DHT medium, 5.0 μM) was 16% and the “Percent of gene expression, PSA” value (PSA mRNA [3]; complete medium, 0.04 μM) was 83%. The “Percent of gene expression, PSA” value (PSA mRNA [3]; complete medium, 0.2 μM) was 70%, the “Percent of gene expression, PSA” value (PSA mRNA [3]; complete medium, 1.0 μM) was 71% and the “Percent of gene expression, PSA” value (PSA mRNA [3]; complete medium, 5.0 μM) was 86%. The “Proliferation (% untreated control) in 22RV1 cells treated with MDV-3100” value (22RV1 cells; 0.04 μM) was 87%, the “Proliferation (% untreated control) in 22RV1 cells treated with MDV-3100” value (22RV1 cells; 0.2 μM) was 83% and the “Proliferation (% untreated control) in 22RV1 cells treated with MDV-3100” value (22RV1 cells; 1.0 μM) was 81%. The “Proliferation (% untreated control) in 22RV1 cells treated with MDV-3100” value (22RV1 cells; 5.0 μM) was 74% and the “proliferation of 22RV1 cells” value (22RV1 cells) was “reduced proliferation of the cells in a dose dependent compared to the control”.
